Read-outs that look alike come from different tables or passages of the source.
Key:
CCRF-CEM = assay type: cell-based; settings: Homo sapiens
HL-60(TB) = assay type: cell-based; settings: Homo sapiens
K-562 = assay type: cell-based, human
MOLT-4 = assay type: cell-based; settings: Homo sapiens
RPMI-8226 = assay type: cell-based
A549/ATCC = assay type: cell-based; settings: Homo sapiens
EKVX = assay type: cell-based; settings: Homo sapiens
HOP-62 = assay type: cell-based; settings: Homo sapiens
NCI-H226 = assay type: cell-based; settings: Homo sapiens
NCI-H23 = assay type: cell-based; settings: Homo sapiens
NCI-H522 = assay type: cell-based; settings: Homo sapiens
COLO 205 = assay type: cell-based; settings: Homo sapiens
HCC-2998 = assay type: cell-based; settings: Homo sapiens
HCT-116 = assay type: cell-based, human
HCT-15 = assay type: cell-based; settings: Homo sapiens
HT29 = assay type: cell-based; settings: Homo sapiens
KM12 = assay type: cell-based; settings: Homo sapiens
SW-620 = assay type: cell-based; settings: Homo sapiens
SF-268 = assay type: cell-based; settings: Homo sapiens
SF-295 = assay type: cell-based; settings: Homo sapiens
SNB-19 = assay type: cell-based; settings: Homo sapiens
SNB-75 = assay type: cell-based; settings: Homo sapiens
U251 = assay type: cell-based; settings: Homo sapiens
LOX IMVI = assay type: cell-based; settings: Homo sapiens
MALME-3M = assay type: cell-based; settings: Homo sapiens
M14 = assay type: cell-based; settings: Homo sapiens
SK-MEL-28 = assay type: cell-based; settings: Homo sapiens
SK-MEL-5 = assay type: cell-based; settings: Homo sapiens
UACC-62 = assay type: cell-based; settings: Homo sapiens
IGROV1 = assay type: cell-based; settings: Homo sapiens, IGROV-1
OVCAR-3 = assay type: cell-based; settings: Homo sapiens
OVCAR-4 = assay type: cell-based; settings: Homo sapiens
OVCAR-5 = assay type: cell-based; settings: Homo sapiens
OVCAR-8 = assay type: cell-based; settings: Homo sapiens
NCI/ADR-RES = assay type: cell-based; settings: Homo sapiens
ACHN = assay type: cell-based; settings: Homo sapiens
[1] = tested on: Melanoma (cell line name not given); assay type: cell-based; settings: Homo sapiens, under Melanoma
SN12C = assay type: cell-based; settings: Homo sapiens
TK-10 = assay type: cell-based; settings: Homo sapiens
UO-31 = assay type: cell-based; settings: Homo sapiens
PC-3 = assay type: cell-based; settings: Homo sapiens
DU-145 = assay type: cell-based; settings: Homo sapiens
HS 578T = assay type: cell-based
MDA-MB-468 = assay type: cell-based; settings: Homo sapiens
[2] = read-out: LC50 (the source's name)

COc1cc(/C=C/C(=O)c2ccc(-n3cc(CN4CCN(c5cc6c(cc5F)c(=O)c(C(=O)O)cn6C5CC5)CC4)nn3)cc2)cc(OC)c1OC [Compound 4j, (E)-1-cyclopropyl-6-fluoro-4-oxo-7–(4-((1–(4-(3-(3,4,5-trimethoxyphenyl)acryloyl)phenyl)-1H-1,2,3-triazol-4-yl)methyl)piperazin-1-yl)-1,4-dihydroquinoline-3-carboxylic acid]
GI50 (CCRF-CEM): 2.63 µM | CC50 (CCRF-CEM; [2]): > 100 µM | GI50 (HL-60(TB)): 3.18 µM | CC50 (HL-60(TB); [2]): > 100 µM | GI50 (K-562): 0.97 µM | GI50 (K-562; Homo sapiens, K562): 0.977 µM | CC50 (K-562; Homo sapiens, K562, read-out: LC50 (the source's name)): > 100 µM | GI50 (MOLT-4): 3.32 µM | CC50 (MOLT-4; [2]): > 100 µM | GI50 (RPMI-8226; Homo sapiens, RPMI-8226, RPMI-8226): 0.401 µM | CC50 (RPMI-8226; Homo sapiens, RPMI-8226, read-out: LC50 (the source's name)): > 100 µM | GI50 (RPMI-8226; RPMI-8226): 0.4 µM | GI50 (A549/ATCC): 2.98 µM | CC50 (A549/ATCC; [2]): > 100 µM | GI50 (EKVX): 4.24 µM | CC50 (EKVX; [2]): > 100 µM | GI50 (HOP-62): 2.49 µM | CC50 (HOP-62; [2]): > 100 µM | GI50 (NCI-H226): 2.39 µM | CC50 (NCI-H226; [2]): > 100 µM | GI50 (NCI-H23): 2.97 µM | CC50 (NCI-H23; [2]): > 100 µM | GI50 (NCI-H522): 4.25 µM | LC50 (NCI-H522): > 100 µM | GI50 (COLO 205): 5.08 µM | CC50 (COLO 205; [2]): > 100 µM | GI50 (HCC-2998): 1.73 µM | GI50 (HCT-116; HCT-116): 0.21 µM | GI50 (HCT-116; Homo sapiens, HCT-116, HCT-116): 0.206 µM | IC50 (HCT-116; Homo sapiens, HCT-116, HCT116, SRB assay): 0.2 µM | GI50 (HCT-15): 2.25 µM | CC50 (HCT-15; [2]): > 100 µM | GI50 (HT29; HT-29): 1.24 µM | CC50 (HT29; HT-29, read-out: LC50 (the source's name)): > 100 µM | GI50 (KM12): 1.57 µM | CC50 (KM12; [2]): > 100 µM | GI50 (SW-620): 1.37 µM | CC50 (SW-620; [2]): > 100 µM | GI50 (SF-268): 3.09 µM | CC50 (SF-268; [2]): > 100 µM | GI50 (SF-295): 2.91 µM | CC50 (SF-295; [2]): > 100 µM | GI50 (SNB-19): 4.52 µM | CC50 (SNB-19; [2]): > 100 µM | GI50 (SNB-75): 1.49 µM | CC50 (SNB-75; [2]): > 100 µM | GI50 (U251; U-251): 1.48 µM | CC50 (U251; U-251, read-out: LC50 (the source's name)): > 100 µM | GI50 (LOX IMVI): 1.57 µM | CC50 (LOX IMVI; [2]): > 100 µM | GI50 (MALME-3M): 2.59 µM | CC50 (MALME-3M; [2]): > 100 µM | GI50 (M14): 2.49 µM | CC50 (M14; [2]): > 100 µM | GI50 (SK-MEL-28): 2.77 µM | LC50 (SK-MEL-28): 78.9 µM | GI50 (SK-MEL-5): 2.64 µM | CC50 (SK-MEL-5; [2]): > 100 µM | GI50 (UACC-62): 2.83 µM | CC50 (UACC-62; [2]): 57.7 µM | GI50 (IGROV1): 1.64 µM | GI50 (OVCAR-3): 1.84 µM | CC50 (OVCAR-3; [2]): > 100 µM | GI50 (OVCAR-4): 3.94 µM | CC50 (OVCAR-4; [2]): 39.6 µM | GI50 (OVCAR-5): 3.7 µM | CC50 (OVCAR-5; [2]): > 100 µM | GI50 (OVCAR-8): 4.03 µM | CC50 (OVCAR-8; [2]): > 100 µM | GI50 (NCI/ADR-RES): > 100 µM | CC50 (NCI/ADR-RES; [2]): > 100 µM | GI50 (ACHN): 3.5 µM | CC50 (ACHN; [2]): > 100 µM | GI50 [1]: 1.73 µM | GI50 (SN12C): 2.66 µM | CC50 (SN12C; [2]): 46.2 µM | GI50 (TK-10): 5.61 µM | CC50 (TK-10; [2]): > 100 µM | GI50 (UO-31): 1.73 µM | CC50 (UO-31; [2]): 30.5 µM | GI50 (PC-3): 2.54 µM | CC50 (PC-3; [2]): > 100 µM | GI50 (DU-145): 3.67 µM | LC50 (lethal concentration 50%) (DU-145): > 100 µM | TGI (HS 578T; HS 578 T): >100 µM | TGI (HS 578T; HS 578T): > 1.00E-4 Molar | GI50 (HS 578T; Homo sapiens, HS 578T): 3.91 µM | CC50 (HS 578T; Homo sapiens, HS 578T, read-out: LC50 (the source's name)): > 100 µM | GI50 (MDA-MB-468): 1.96 µM | CC50 (MDA-MB-468; [2]): > 100 µM
